The test system of data set [1] is HN5 head and neck tumor cell line. Put plainly: Methylene blue growth inhibition assay, HN5. It counts as cell-based. The note with it: Homo sapiens, 72 h; HN5, 3 days; read-out: Cell Proliferation HN5, IC50. The procedure, abridged: (§1)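 Cells were grown 3 days at 37 °C (10% CO2) with compound in 0.3% final DMSO: BT474 and HN5 in DMEM/10% FBS, and HB4a clones in RPMI/10% FBS with insulin, hydrocortisone and hygromycin. Biomass was read by methylene blue stain at OD620, and IC50 was interpolated by nonlinear regression against vehicle controls.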

Another data set concerns the target T1, c-erbB-2 (Homo sapiens, UniProt P04626).
T1 construct: baculovirus expressed, recombinant constructs of the intracellular domains of c-erbB-2 and c-erbB-4; made in house
The data set can be described thus: Substrate phosphorylation assay, erbB2, assay (b) (SPA, 33P-ATP). Type of data set: biochemical. The note with it: Tables 1A and 1B. An outline of the steps: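 For EGFr from A431 membranes (assay a): 30 min at RT with 10 mM MnCl2, 10 mM ATP, 5 mM peptide, 2% DMSO, HEPES pH 7.4; phosphotyrosine read by Eu-antibody time-resolved fluorescence. For erbB2 intracellular domain (assay b): 50 min at RT, 15 mM MnCl2, 2 mM ATP plus [γ-33P]ATP, MOPS pH 7.2; SPA readout.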

Data set [2] has as its system N87 gastric tumor cell line. Put plainly: Methylene blue growth inhibition assay, N87. It counts as cell-based. The note with it: Homo sapiens, 72 h; N87, 3 days; read-out: Cell Proliferation N87, IC50. The procedure, abridged:
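N87 human gastric tumor cells, grown in low glucose DMEM with 10% FBS at 37° C. under 10% CO2, were seeded at 10,000 cells/well in 96-well plates. The following day, compounds diluted in gentamicin-containing DMEM were added (final DMSO 0.3%). After 3 days, biomass was stained with methylene blue, solubilized with N-lauroyl sarcosine, and OD at 620 nm read. IC50 came from nonlinear regression.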

The test system of data set [3] is BT474 breast tumor cell line. Put plainly: Methylene blue growth inhibition assay, BT474. It counts as cell-based. The note with it: Homo sapiens, BT-474, 72 h; BT474, 3 days; read-out: Cell Proliferation BT474, IC50. An outline of the steps:
as §1

Data set [4] relates to HB4a c5.2 (HB4a transfected with human c-erbB2 cDNA). Put plainly: Methylene blue growth inhibition assay, HB4a erbB2. It counts as cell-based. The note with it: 72 h, HB4a c5.2, 3 days, read-out: Cell Proliferation HB4a erbB2, IC50. An outline of the steps: as §1
Data set [5] has as its target T2, EGFr isolated from solubilised A431 cell membranes (Homo sapiens, UniProt P00533).
T2 construct: EGFr isolated from solubilised A431 cell membranes; endogenous in cells; host or cells: A431 cell membranes (solubilised)
The data set can be described thus: Substrate phosphorylation assay, EGF-r, assay (a) (time-resolved fluorescence). Type of data set: biochemical. The text has this: The substrate phosphorylation assays use baculovirus expressed, recombinant constructs of the intracellular domains of c-erbB-2 and c-erbB-4 that are constitutively active and EGFr isolated from solubilised A431 cell membranes. The method measures the ability of the isolated enzymes to catalyse the transfer of the g-phosphate from ATP onto tyrosine residues in a biotinylated synthetic peptide (Biotin-[…]. Substrate phosphorylation was detected following either of the following two procedures: a.) c-ErbB-2, c-ErbB4 or EGFr were incubated for 30 minutes, at room temperature, with 10 mM MnCl2, 10 mM ATP, 5 mM peptide, and test compound (diluted from a 5 mM stock in DMSO, final DMSO concentration is 2%) in 40 mM HEPES buffer, pH 7.4. The reaction was stopped by the addition of EDTA (final concentration 0.15 mM) and a sample was transferred to a streptavidin-coated 96-well plate. The plate was washed and the level of phosphotyrosine on the peptide was determined using a Europium-labelled antiphosphotyrosine antibody and quantified with a time-resolved fluorescence technique. b.) ErbB2 was incubated for 50 minutes at room temperature with 15 mM MnCl2, 2 mM ATP, 0.25 mCi [γ-^33P] ATP/well, 5 mM peptide substrate, and test compound (diluted from a 10 mM stock in DMSO, final DMSO concentration is 2%) in 50 mM MOPS pH 7.2. The reaction was terminated by the addition of […] of PBS containing 2.5 mg/ml streptavidin-coated SPA beads (Amersham Inc.), 50 mM ATP, 10 mM EDTA and 0.1% TX-100. The microtitre plates were sealed and SPA beads were allowed to settle for at least six hours. The SPA signal was measured using a Packard Topcount 96-well plate scintillation counter (Packard Instrument Co., Meriden, Conn.).

The test system of data set [6] is HB4a r4.2 (HB4a transfected with human H-ras cDNA). Put plainly: Methylene blue growth inhibition assay, HB4a ras. Type of data set: cell-based. The note with it: 72 h, HB4a r4.2, 3 days, read-out: Cell Proliferation HB4a ras, IC50. The procedure, abridged:
as §1

A short description of data set [7]: Major metabolites: liver S-9 homogenate incubation, LC-MS metabolite identification. It counts as in vitro ADME, Sprague Dawley rat and human. The note with it: liver S-9 (rat, human), 10 μM, 60 min, 37° C. As for the experimental part: Liver S-9 homogenates (5 mg/mL protein concentration) from prepared pooled male Sprague Dawley rat livers and pooled human livers (XenoTech, LLC, Kansas City, Kans.) were incubated in 96-well polypropylene plates with representative examples selected from examples 1 to 40 (10 μM) in a total volume of 0.5 mL. Stock solutions of these compounds were prepared in DMSO at a concentration of 1 mM to maintain a <1% final DMSO concentration for each reaction. Enzymatic incubations contained cofactors (5.71 mM NADPH, 7.14 mM glucose-6-phosphate, 7.14 mM UDPGA, 47.1 mM potassium chloride, and 11.4 mM magnesium chloride in 0.1 M potassium phosphate buffer, pH 7.4). Control samples were aspirated from the reaction samples at time zero and placed immediately into 2 volumes of ice-chilled acetonitrile. Sample reaction plates were incubated for 60 min in a shaker incubator maintained at 37° C. supplied with O2. Reactions were terminated by addition of 2 volumes of ice-chilled acetonitrile. All samples were vortexed and centrifuged at 2000×g for 10 min. The supernatant was removed and analyzed by LC-MS. The metabolite identification work was done by using reversed-phase HPLC coupled with ion-trap mass spectroscopy.

The structures appear in SMILES notation. Where a name gives a salt, the structure may show the parent alone. Bounds are passed on as bounds.

T1 sequence (P04626 676-1255 limits assumed): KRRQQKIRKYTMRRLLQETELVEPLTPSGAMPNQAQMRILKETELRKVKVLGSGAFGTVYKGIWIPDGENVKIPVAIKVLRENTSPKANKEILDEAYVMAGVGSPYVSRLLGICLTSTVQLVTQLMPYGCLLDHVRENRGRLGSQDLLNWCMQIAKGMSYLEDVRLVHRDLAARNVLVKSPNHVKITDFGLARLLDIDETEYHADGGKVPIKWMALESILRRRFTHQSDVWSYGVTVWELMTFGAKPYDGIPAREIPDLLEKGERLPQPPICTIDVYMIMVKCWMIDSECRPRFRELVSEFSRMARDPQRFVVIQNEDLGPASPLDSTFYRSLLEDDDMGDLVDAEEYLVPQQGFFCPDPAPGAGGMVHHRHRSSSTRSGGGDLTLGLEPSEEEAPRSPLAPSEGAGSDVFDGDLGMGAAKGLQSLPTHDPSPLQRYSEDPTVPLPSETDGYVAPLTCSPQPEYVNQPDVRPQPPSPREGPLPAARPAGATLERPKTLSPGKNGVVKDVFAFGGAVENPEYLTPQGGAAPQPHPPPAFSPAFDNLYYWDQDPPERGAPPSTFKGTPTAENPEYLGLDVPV
T2 sequence (P00533 25-1210): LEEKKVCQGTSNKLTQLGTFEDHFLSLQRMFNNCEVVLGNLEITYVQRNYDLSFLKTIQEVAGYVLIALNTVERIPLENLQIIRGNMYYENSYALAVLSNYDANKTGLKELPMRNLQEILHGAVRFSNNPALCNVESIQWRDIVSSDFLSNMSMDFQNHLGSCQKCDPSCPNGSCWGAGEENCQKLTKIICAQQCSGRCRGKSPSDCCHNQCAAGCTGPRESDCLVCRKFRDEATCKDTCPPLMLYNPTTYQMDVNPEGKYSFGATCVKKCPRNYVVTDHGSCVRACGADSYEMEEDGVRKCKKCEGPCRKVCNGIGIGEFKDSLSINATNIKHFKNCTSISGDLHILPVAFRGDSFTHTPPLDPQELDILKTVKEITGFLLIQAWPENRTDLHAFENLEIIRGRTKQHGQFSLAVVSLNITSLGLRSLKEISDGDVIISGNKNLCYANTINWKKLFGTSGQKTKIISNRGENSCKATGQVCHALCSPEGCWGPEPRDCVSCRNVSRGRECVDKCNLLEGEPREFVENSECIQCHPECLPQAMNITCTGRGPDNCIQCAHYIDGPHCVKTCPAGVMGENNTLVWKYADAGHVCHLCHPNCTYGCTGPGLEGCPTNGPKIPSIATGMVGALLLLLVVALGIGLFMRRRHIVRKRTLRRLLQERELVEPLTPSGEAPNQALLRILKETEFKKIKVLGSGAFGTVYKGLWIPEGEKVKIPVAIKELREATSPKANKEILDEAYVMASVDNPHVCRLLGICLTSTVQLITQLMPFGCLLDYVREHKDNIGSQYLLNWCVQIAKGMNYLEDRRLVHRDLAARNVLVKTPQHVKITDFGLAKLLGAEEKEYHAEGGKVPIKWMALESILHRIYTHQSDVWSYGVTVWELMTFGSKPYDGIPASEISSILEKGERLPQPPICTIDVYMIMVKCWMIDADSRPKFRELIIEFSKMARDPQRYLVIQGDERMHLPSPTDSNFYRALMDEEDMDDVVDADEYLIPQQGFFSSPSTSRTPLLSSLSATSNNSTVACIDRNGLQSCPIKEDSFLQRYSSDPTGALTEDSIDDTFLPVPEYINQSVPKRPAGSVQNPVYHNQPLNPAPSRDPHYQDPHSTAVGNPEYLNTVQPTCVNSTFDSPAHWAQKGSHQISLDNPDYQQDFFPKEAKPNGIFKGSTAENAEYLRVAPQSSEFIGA

`CS(=O)(=O)CCNCc1ccc(-c2cc3c(Nc4ccc(OCc5ccc(F)cc5)cc4)ncnc3cn2)o1` [Example 1, (4-(4-Fluorobenzyloxy)-phenyl)-(6-(5-((2-methanesulphonyl-ethylamino)methyl)-furan-2-yl)-pyrido[3,4-d]pyrimidin-4-yl)-amine dihydrochloride]: the IC50 was less than 5 µM in data set [1]; less than 0.1 µM against c-erbB-2; less than 5 µM in data set [2]; less than 5 µM in data set [3]; less than 5 µM in data set [4]; less than 0.1 µM in data set [5]. For the same compound, the IC50 in data set [6] fell in the range of 25 to 50 µM.

Turning to `CS(=O)(=O)CCNCc1ccc(-c2cc3c(Nc4ccc(OCc5cccc(F)c5)cc4)ncnc3cn2)o1` [Example 2, (4-(3-Fluorobenzyloxy)-phenyl)-(6-(5-((2-methanesulphonyl-ethylamino)methyl)-furan-2-yl)-pyrido[3,4-d]pyrimidin-4-yl)-amine dihydrochloride], the IC50 was less than 5 µM in data set [1]; less than 0.1 µM at c-erbB-2; less than 5 µM in data set [2]; less than 5 µM in data set [3]; less than 5 µM in data set [4]; less than 0.1 µM in data set [5]. In data set [6], the IC50 fell in the range of 25 to 50 µM.

Consider `CS(=O)(=O)CCNCc1ccc(-c2cc3c(Nc4ccc(S(=O)(=O)c5ccccc5)cc4)ncnc3cn2)o1` [Example 3, (4-Benzenesulphonyl-phenyl)-(6-(5-((2-methanesulphonyl-ethylamino)-methyl)-furan-2-yl)-pyrido[3,4-d]pyrimidin-4-yl)-amine dihydrochloride], for which the IC50 in data set [1] was less than 5 µM; against c-erbB-2 it was less than 0.1 µM; in data set [2] it was less than 5 µM; in data set [3], less than 5 µM; in data set [4] it was less than 5 µM; in data set [5] it was less than 0.1 µM. Also, in data set [6], the IC50 was 25 to 50 µM.

Consider `CS(=O)(=O)CCNCc1cccc(-c2cc3c(Nc4ccc(OCc5ccccc5)cc4)ncnc3cn2)c1` [Example 4, (4-Benzyloxy-phenyl)-(6-(3-((2-methanesulphonyl-ethylamino)-methyl)-phenyl)-pyrido[3,4-d]pyrimidin-4-yl)-amine dihydrochloride], for which the IC50 is less than 5 µM in data set [1]; 0.1 to 1 µM on c-erbB-2; less than 5 µM in data set [2]; less than 5 µM in data set [3]; less than 5 µM in data set [4]; less than 0.1 µM in data set [5]. Besides, the IC50 in data set [6] was more than 50 µM.

Regarding `CS(=O)(=O)CCNCc1ccc(-c2ccc3ncnc(Nc4ccc(OCc5ccccc5)cc4)c3c2)o1` [Example 5, (4-Benzyloxyphenyl)-(6-(5-((2-methanesulphonyl-ethylamino)-methyl)-furan-2-yl)-quinazolin-4-yl)-amine dihydrochloride], the IC50 was less than 5 µM in data set [1]; less than 0.1 µM against c-erbB-2; less than 5 µM in data set [2]; less than 5 µM in data set [3]; less than 5 µM in data set [4]; less than 0.1 µM in data set [5]. Moreover, the IC50 in data set [6] is more than 50 µM.

Take `CS(=O)(=O)CCNCc1nc(-c2ccc3ncnc(Nc4ccc(OCc5ccccc5)cc4)c3c2)cs1` [Example 7, (4-Benzyloxy-phenyl)-(6-(2-((2-methanesulphonyl-ethylamino)-methyl)-thiazol-4-yl)-quinazolin-4-yl)-amine dihydrochloride]: the IC50 in data set [1] is less than 5 µM; on c-erbB-2 it was less than 0.1 µM; in data set [2] it was less than 5 µM; in data set [3] it was less than 5 µM; in data set [4] it was less than 5 µM; in data set [5] it was less than 0.1 µM. Moreover, the IC50 in data set [6] fell in the range of 5 to 25 µM.

For the compound `NCc1coc(-c2ccc3ncnc(Nc4ccc(OCc5ccccc5)cc4)c3c2)c1` [N-[4-(Benzyloxy)phenyl]-6-[4-(aminomethyl)-2-furyl]-4-quinazolinamine], in data set [7], the “identified as a major metabolite of N-[4-(benzyloxy)phenyl]-6-[4-({[2-(methanesulphonyl)ethyl]amino}methyl)-2-furyl]-4-quinazolinamine (Example 11)” value is reported as “identified as a major metabolite”.

The values are drawn from patent US7109333B2, “Heterocyclic compounds” (SmithKline Beecham Corporation, priority 1998, dated 2006).
